pIC50: −log10 of the molar value. Structures can show the parent of a compound that is named as a salt. Where two headings read alike, the source gives them in different places.
Key:
Format in all cases: biochemical
[1] = molecular target: phosphorylated p-38-alpha kinase (Homo sapiens, UniProt Q16539); test: P-38 alpha kinase assay P1 (coupled spectrophotometric, 2 h pre-incubation)
[2] = molecular target: KDR kinase (Homo sapiens, UniProt P35968, DEL940-989/E990V); test: KDR kinase assay K1 (pyruvate kinase/lactate dehydrogenase coupled, spectrophotometric)
Method: (§1) IC50 values were calculated from a series of percent inhibition values determined at a range of inhibitor concentrations using software routines as implemented in the GraphPad Prism software package.

[3] = molecular target: T1, Abl kinase (Homo sapiens, UniProt P00519); test: Abl kinase assay A1 (pyruvate kinase/lactate dehydrogenase coupled, spectrophotometric)
T1 sequence (P00519 229-512): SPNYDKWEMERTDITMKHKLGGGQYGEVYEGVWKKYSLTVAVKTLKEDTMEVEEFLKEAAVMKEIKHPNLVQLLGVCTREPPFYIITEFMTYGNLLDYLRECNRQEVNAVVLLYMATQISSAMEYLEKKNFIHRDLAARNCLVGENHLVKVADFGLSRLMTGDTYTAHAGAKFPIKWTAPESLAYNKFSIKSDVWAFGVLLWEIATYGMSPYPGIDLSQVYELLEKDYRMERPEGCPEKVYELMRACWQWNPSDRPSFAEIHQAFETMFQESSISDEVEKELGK
Method: as §1

[4] = molecular target: B-Raf(V599E) kinase (Homo sapiens, UniProt P15056, V600E); test: B-Raf(V599E) kinase assay B1 (construct 1, MEK1 substrate, coupled spectrophotometric)
Method: The test compounds were incubated with the reaction mixtureat 30° C. for 2 h. […] The reaction rate was calculated using the […] time frame. […] IC50 values were calculated from a series of percent inhibition values determined at a range of inhibitor concentrations using software routines as implemented in the GraphPad Prism software package.

[5] = method P1 (2 h pre-incubation), read-out: P-38 Data
[6] = Method K1, read-out: KDR Data (IC50)
[7] = Method A1, read-out: Abl Data (IC50)

B-Raf(V599E) kinase, sequence (P15056 with tags, fused parts or gaps V600E): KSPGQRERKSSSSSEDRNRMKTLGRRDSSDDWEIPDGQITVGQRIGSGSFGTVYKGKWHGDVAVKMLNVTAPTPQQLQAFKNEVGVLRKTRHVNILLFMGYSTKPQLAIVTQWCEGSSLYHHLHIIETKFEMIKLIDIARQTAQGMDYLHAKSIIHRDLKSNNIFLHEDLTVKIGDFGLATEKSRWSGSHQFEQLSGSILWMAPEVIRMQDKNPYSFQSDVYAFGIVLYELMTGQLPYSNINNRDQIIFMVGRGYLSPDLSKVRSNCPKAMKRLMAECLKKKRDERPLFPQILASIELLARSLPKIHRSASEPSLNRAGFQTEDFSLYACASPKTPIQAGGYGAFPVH
phosphorylated p-38-alpha kinase, sequence (Q16539 1-360 isoform Q16539-2): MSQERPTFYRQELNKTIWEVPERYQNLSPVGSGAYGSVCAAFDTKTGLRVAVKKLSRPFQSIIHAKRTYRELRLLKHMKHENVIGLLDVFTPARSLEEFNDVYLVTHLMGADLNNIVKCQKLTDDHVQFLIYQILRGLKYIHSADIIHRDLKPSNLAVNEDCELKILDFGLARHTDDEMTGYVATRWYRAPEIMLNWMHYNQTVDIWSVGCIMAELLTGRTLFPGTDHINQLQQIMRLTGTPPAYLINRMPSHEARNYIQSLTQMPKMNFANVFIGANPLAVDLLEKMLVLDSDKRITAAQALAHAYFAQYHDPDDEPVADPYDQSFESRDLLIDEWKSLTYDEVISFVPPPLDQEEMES
KDR kinase, sequence (P35968 with tags, fused parts or gaps DEL940-989/E990V): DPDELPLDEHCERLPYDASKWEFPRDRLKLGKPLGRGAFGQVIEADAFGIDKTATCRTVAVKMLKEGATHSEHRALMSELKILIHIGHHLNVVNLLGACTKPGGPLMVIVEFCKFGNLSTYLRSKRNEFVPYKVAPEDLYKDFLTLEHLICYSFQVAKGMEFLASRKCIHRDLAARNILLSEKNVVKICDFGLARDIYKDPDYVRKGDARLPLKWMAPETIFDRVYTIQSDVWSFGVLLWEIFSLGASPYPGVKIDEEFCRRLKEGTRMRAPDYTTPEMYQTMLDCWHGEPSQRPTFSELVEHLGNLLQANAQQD

Structure (SMILES) | pIC50 [1, 5] | pIC50 [2, 6] | pIC50 [3, 7] | pIC50 [4] | pIC50 [1] | pIC50 [2] | pIC50 [3]
CC(C)(C)c1cc(NC(=O)Nc2cccc(Cl)c2Cl)n(-c2ccc3c(c2)CCNC3=O)n1 [Example 137, 1-(3-t-butyl-1-(1-oxo-1,2,3,4-tetrahydroisoquinolin-6-yl)-1H-pyrazol-5-yl)-3-(2,3-dichloro-phenyl)urea] | 7.26 | 6.00 | 6.82 | 8.60 | – | – | –
CC(C)(C)c1cc(NC(=O)Nc2cccc(Cl)c2Cl)n(-c2ccc3c(c2)C(N)=NCC3)n1 [Example 129, 1-[1-(1-amino-3,4-dihydroisoquinolin-7-yl)-3-t-butyl-1H-pyrazol-5-yl]-3-(2,3-dichlorophenyl)urea] | 6.89 | 6.30 | 6.57 | 8.38 | – | – | –
CC(C)(C)c1cc(NC(=O)Nc2cccc(Cl)c2Cl)n(-c2ccc3c(c2)CCN(S(C)(=O)=O)C3)n1 [Example 154, 1-(3-t-butyl-1-(2-(methylsulfonyl)-1,2,3,4-tetrahydroisoquinolin-6-yl)-1H-pyrazol-5-yl)-3-(2,3-dichlorophenyl)urea] | 7.92 | 7.04 | 6.57 | 8.54 | – | – | –
CN(C)CCc1cccc(-n2nc(C(C)(C)C)cc2NC(=O)Nc2cccc(Cl)c2Cl)c1 [Example 40, 1-(3-t-butyl-1-{3-[2-(dimethylamino)ethyl]phenyl}-1H-pyrazol-5-yl)-3-(2,3-di-chlorophenyl)urea] | – | 6.33 | 6.24 | 8.06 | – | – | –
CC(C)(C)c1cc(NC(=O)Nc2cccc(Cl)c2Cl)n(-c2ccc3c(c2)CCCN3)n1 [Example 135, 1-[3-t-butyl-1-(1,2,3,4-tetrahydroquinolin-6-yl)-1H-pyrazol-5-yl]-3-(2,3-dichlorophenyl)urea hydrochloride] | – | – | – | 8.35 | 7.36 | 6.57 | 6.08
CC(C)(C)c1cc(NC(=O)Nc2cccc(Cl)c2Cl)n(-c2cccc(C#N)c2)n1 [Example 9] | – | 7.33 | 6.74 | 8.34 | – | – | –
CC(C)(C)c1cc(NC(=O)Nc2cccc(Cl)c2Cl)n(-c2ccc(CCO)cc2)n1 [Example 45, 1-{3-t-butyl-1-[4-(2-hydroxyethyl)-phenyl]-1H-pyrazol-5-yl}-3-(2,3-dichlorophenyl)urea] | 8.30 | 6.44 | 6.11 | 8.21 | – | – | –
CC(C)(C)c1cc(NC(=O)Nc2cccc(Cl)c2Cl)n(-c2cccc(CCO)c2)n1 [Example 24, 1-{3-t-butyl-1-[3-(2-hydroxyethyl)phenyl]-1H-pyrazol-5-yl}-3-(2,3-dichlorophenyl)urea] | 7.96 | 6.42 | 6.08 | 8.64 | – | – | –
CC(C)(C)c1cc(NC(=O)Nc2cccc(Cl)c2Cl)n(-c2cccc(C(C)(C)O)c2)n1 [Example 2, 1-{3-t-butyl-1-[3-(2-hydroxypropan-2-yl)phenyl]-1H-pyrazol-5-yl}-3-(2,3-dichlorophenyl)urea] | – | 6.34 | 5.70 | 7.72 | – | – | –
CC(C)(C)c1cc(NC(=O)Nc2cccc(Cl)c2Cl)n(-c2cccc(CCN)c2)n1 [Example 39, 1-{1-[3-(2-aminoethyl)phenyl]-3-t-butyl-1H-pyrazol-5-yl}-3-(2,3-dichlorophenyl)urea] | – | 6.62 | 6.46 | 8.15 | – | – | –
CC(C)(C)c1cc(NC(=O)Nc2cccc(Cl)c2Cl)n(-c2ccc3c(c2)CCC(=O)N3)n1 [Example 131, 1-[3-t-butyl-1-(2-oxo-1,2,3,4-tetrahydroquinolin-6-yl)-1H-pyrazol-5-yl]-3-(2,3-dichlorophenyl)urea] | 7.48 | 7.11 | 6.55 | 8.72 | – | – | –
CC(C)(C)c1cc(NC(=O)Nc2cccc(Cl)c2Cl)n(-c2ccc3c(c2)C(=O)NCC3)n1 [Example 122, 1-[3-t-butyl-1-(1-oxo-1,2,3,4-tetrahydroisoquinolin-7-yl)-1H-pyrazol-5-yl]-3-(2,3-di-chlorophenyl)urea] | 6.89 | 5.85 | 5.55 | 7.96 | – | – | –
CC(C)(C)c1cc(NC(=O)Nc2cccc(Cl)c2Cl)n(-c2cc(CO)c3ccccc3c2)n1 [Example 60, 1-[5-t-butyl-2-(4-hydroxymethylnaphthalen-2-yl)-2H-pyrazol-3-yl]-3-(2,3-dichloro-phenyl)urea] | 7.74 | 7.21 | 7.20 | 8.59 | – | – | –
CC(C)(C)c1cc(NC(=O)Nc2cccc(Cl)c2Cl)n(-c2ccc(C(C)(C)O)cc2)n1 [Example 20, 1-{3-t-butyl-1-[4-(2-hydroxypropan-2-yl)phenyl]-1H-pyrazol-5-yl}-3-(2,3-dichlorophenyl)urea] | 7.22 | 6.89 | 5.80 | 8.07 | – | – | –
CC(C)(C)c1cc(NC(=O)Nc2cccc(Cl)c2Cl)n(-c2cc(CN)c3ccccc3c2)n1 [Example 69, 1-[1-(4-(aminomethyl)naphthalen-2-yl)-3-t-butyl-1H-pyrazol-5-yl]-3-(2,3-dichlorophenyl)urea] | 6.96 | 6.40 | 6.85 | 8.38 | – | – | –
CC(C)(C)c1cc(NC(=O)Nc2ccc(Oc3ccccc3)cc2)n(-c2ccc3c(c2)CCNC3)n1 [Example 143, 1-(3-t-butyl-1-(1,2,3,4-tetrahydroiso-quinolin-6-yl)-1H-pyrazol-5-yl)-3-(4-phenoxyphenyl)-urea] | – | 6.03 | 6.60 | 7.85 | – | – | –
CNC(=O)[C@@H]1Cc2ccc(-n3nc(C(C)(C)C)cc3NC(=O)Nc3cccc(Cl)c3Cl)cc2CN1 [Example 187, 1-(3-t-butyl-1-((3S)-3-(methylcarbamoyl)-1,2,3,4-tetrahydroisoquinolin-7-yl)-1H-pyrazol-5-yl)-3 (2,3-dichlorophenyl)urea] | – | 6.82 | 6.25 | 8.52 | – | – | –
CC(C)(C)c1cc(NC(=O)Nc2cccc(Cl)c2Cl)n(-c2ccc3c(c2)CCNC(=O)C3)n1 [Example 165, 1-(3-t-butyl-1-(2-oxo-2,3,4,5-tetrahydro-1H-benzo[d]azepin-7-yl)-1H-pyrazol-5-yl)-3-(2,3-dichlorophenyl)urea] | 8.15 | 6.68 | 6.70 | 8.62 | – | – | –
COc1cccc(-n2nc(C(C)(C)C)cc2NC(=O)Nc2cccc(Cl)c2Cl)c1 [Example 15, 1-(3-t-butyl-1-(3-methoxyphenyl)-1H-pyrazol-5-yl)-3-(2,3-dichlorophenyl)urea] | – | 7.09 | 6.41 | 8.48 | – | – | –
CC(Cc1cccc(-n2nc(C(C)(C)C)cc2NC(=O)Nc2cccc(Cl)c2Cl)c1)C(=O)O (centres unmarked) [Example 267, 3-(3-{3-t-butyl-5-[3-(2,3-dichlorophenyl)ureido]-1H-pyrazol-1-yl}-phenyl)-2-methylpropanoic acid] | 7.92 | 6.26 | – | 8.10 | – | – | –
CC(C)(C)c1cc(NC(=O)Nc2cccc(Cl)c2Cl)n(-c2ccc(CO)cc2)n1 [Example 19, 1-{3-t-butyl-1-[4-(hydroxymethyl)-phenyl]-1H-pyrazol-5-yl}-3-(2,3-dichlorophenyl)urea] | – | 6.15 | 6.21 | 8.32 | – | – | –
CC(C)(C)c1cc(NC(=O)Nc2cccc(Cl)c2Cl)n(-c2ccc3c(c2)CN(C(=N)N)CC3)n1 [Example 130, 1-[3-t-butyl-1-(2-carbamimidoyl-1,2,3,4-tetrahydroisoquinolin-7-yl)-1H-pyrazol-5-yl]-3-(2,3-dichlorophenyl)urea] | – | 6.49 | 6.64 | – | – | – | –
CC(C)(C)c1cc(NC(=O)Nc2cccc(Cl)c2Cl)n(-c2cccc(CN)c2)n1 [Example 42, 1-{1-[3-(aminomethyl)phenyl]-3-t-butyl-1H-pyrazol-5-yl}-3-(2,3-dichloro-phenyl)urea] | – | 6.44 | 5.82 | 8.00 | – | – | –
CC(C)(C)c1cc(NC(=O)Nc2cccc(Oc3ccccc3)c2)n(-c2ccc3c(c2)CCNC3)n1 [Example 140, 1-(3-t-butyl-1-(1,2,3,4-tetrahydro-isoquinolin-6-yl)-1H-pyrazol-5-yl)-3-(3-phenoxyphenyl)urea] | – | 5.64 | 6.92 | 8.34 | – | – | –
CC(C)(C)c1cc(NC(=O)Nc2cccc(Cl)c2Cl)n(-c2ccc(CC(=O)O)cc2)n1 [Example 383] | 8.15 | 6.55 | – | 8.09 | – | – | –
CCOC(=O)CCc1cccc(-n2nc(C(C)(C)C)cc2NC(=O)Nc2cccc(Cl)c2Cl)c1 [Example 264, 3-(3-{3-t-butyl-5-[3-(2,3-dichlorophenyl)ureido]-1H-pyrazol-1-yl}phenyl)propionic acid ethyl ester] | 7.09 | 6.85 | – | 8.14 | – | – | –
CC(C)(C)c1cc(NC(=O)Nc2cc(F)cc(F)c2F)n(-c2ccc3c(c2)CCN3S(C)(=O)=O)n1 [Example 109, 1-(3-t-butyl-1-(1-(methylsulfonyl)indolin-5-yl)-1H-pyrazol-5-yl)-3-(2,3,5-trifluorophenyl)urea] | – | 7.42 | 6.85 | 8.57 | – | – | –
CC(C)(C)c1cc(NC(=O)Nc2ccc(Cl)cc2)n(-c2cc(CO)c3ccccc3c2)n1 [Example 61] | – | 5.82 | 6.09 | 7.74 | – | – | –

Source: patent publication US8163756B2 (priority 2004, dated 2012)
